A melting point compilation (Tetko et al.; mined from patent text by program, amines drawn as free bases though some values may be those of a salt)

melting point [°C] | Compound
262 to 264 | O=c1cc(-c2cccs2)c2ccccc2[nH]1
97 to 99 | CCOC(=O)C(=O)NNc1ccc(N)cc1
202 | O=C(Cc1cccc(Br)c1)Nc1cccc(C(=O)NCCO)c1
126 to 129 | Cn1c(-c2ccc(Cl)cc2)c(C#N)c(Br)c1C(F)(F)F
126 to 128 | Cc1cc(C#N)cc(C(C#N)c2nc(OCc3ccccc3)nc(OCc3ccccc3)c2C(C)(C)C)c1 (centres undefined)
145 to 146 | Cc1onc(-c2ccccc2)c1-c1cc2ccccc2[nH]1
38 to 39 | CCCc1ccc(CCCOc2c(C)cc(-c3nnn(C)n3)cc2C)o1
115 to 117 | COc1cccc(-c2ccc3c(c2)C(=O)N(Cc2cccnc2)C3=O)c1
166 to 168 | O=C(O)C(=O)CC(=O)c1cccn1Cc1cc(F)cc(F)c1
155 to 156 | Cc1ccc(-c2cc3onc(-c4ccccc4)c3c(=O)n2C)cc1
107 to 109 | Clc1cccc(-c2nc3ccccc3n2-c2ccccc2)c1
112 to 114 | COc1ccc(CN2C(CN3CCOCC3)=Cc3ccsc3S2(=O)=O)cc1
105 to 107 | CC(C)OCCOc1c(-c2ccc(S(C)(=O)=O)cc2)cnn(-c2ccc(F)c(F)c2)c1=O
209 | N#Cc1cc(-c2c[nH]nc2-c2ccc(F)cc2)ccn1
116 | CC#CCOc1cc(Oc2ccc(F)cc2)ncn1
210 to 211 | COc1ccc2cc(C(=O)O)n(CCNC(C)=O)c2c1
172 to 178 | N#Cc1ccc(OCc2ccc3ncoc3c2)cc1OC(C(=O)O)c1ccccc1Cl (racemic)

The remaining lines, values behind:

Compound | melting point [°C]
O=C(O)C1CC(=S)N(c2cc(C(F)(F)F)cc(C(F)(F)F)c2)C1 (centres undefined) | 141 to 142
CCOC(=O)CCc1ccnc(O)c1 | 73 to 76.5
COC(=O)c1ccc(OCCNC(=O)C2Cc3ccccc3N2S(=O)(=O)c2ccc(-c3cc(C(F)(F)F)ccc3Cl)cc2)cc1Cl (centres undefined) | 70 to 76
COc1ccc(-c2cc(=Nc3c(C)cc(C)cc3C)n(C)c3nnnn23)cc1OC | 198 to 200
CC(C)(C)C#CC(O)(Cn1cncn1)C(C)(C)C (centres undefined) | 114 to 118
CN(CCC(=O)O)c1ccccc1CNC(=O)C1Cc2ccccc2N1S(=O)(=O)c1ccc(-c2ccc(F)cc2Cl)cc1 (centres undefined) | 75 to 83
COC(=O)c1cc2cc(OC)c(OC)cc2c(-c2ccnc(-n3c(=O)cc(C(=O)N4CCOCC4)c4ccccc43)c2)c1C(=O)OC | 247 to 249
CC1(C)Cc2ccc(C(F)(F)F)c(C#N)c2O1 | 79 to 83
CCN(CC)c1ccc(C2(c3c(C)n(CC)c4ccccc34)OC(=O)c3cccnc32)c(OC2CCCC2)c1 (centres undefined) | 120 to 125
COc1cc(O)c2c(=O)c(OC)c(-c3ccc(O)cc3OC)oc2c1 | 191 to 192
N#CSCC(=O)c1ccccc1 | 75 to 77
COCc1nc2c(N)nc3cc(CCC(=O)N4CCS(=O)(=O)CC4)ccc3c2n1CC(C)(C)O | 190 to 192
O=C(O)C1CSC(=S)N1 (centres undefined) | 183 to 184
CCOC(=O)c1ccc(C(Cc2ccncc2)c2ccc(OC)c(OC3CCCC3)c2)cc1 (centres undefined) | 170 to 173
Cc1nc(C(=O)O)cnc1Cl | 116 to 117
CCCN(CCC)c1c([N+](=O)[O-])cc(C(C)=O)cc1[N+](=O)[O-] | 71 to 72
CC(C)(C)OC(=O)N1CCC(C(=O)c2nc3ccccc3[nH]2)CC1 | 226 to 228
CCOC(=O)N1C(=O)OC(c2c(Cl)cccc2OC)C1=O (centres undefined) | 196 to 200
CC1COc2c(-c3ccccc3)ccc3c(=O)c(C(=O)O)cn1c23 (centres undefined) | 295 to 296
CCC(C)(C)Nc1c(NCc2cccc(Cl)c2C)c(=O)c1=O | 236 to 237
O=C1c2ccccc2C(=O)N1OCc1cc(Cl)c2c(c1Cl)OC(c1ccccc1)(c1ccccc1)O2 | 127 to 129
CC(C)(C)c1cc(C(=O)NCc2cccc([N+](=O)[O-])c2)cc(C(C)(C)C)c1O | 210 to 211
